“Also recorded” adds a separate entry of the source.

Experiment [1] has as its system S. aureus. Briefly: S. aureus growth inhibition, optical density, test/control. Format: cell-based, Staphylococcus aureus. As to conditions: growth of bacteria test/control by optical density; for activity at 100 µM: Staphylococcus aureus.
Experiment [2] relates to S. epidermis. Briefly: S. epidermis growth inhibition, optical density, test/control. As to conditions: for activity at 100 µM: Staphylococcus epidermidis, growth of bacteria test/control by optical density. Format: cell-based, Staphylococcus epidermidis.
Experiment [3] concerns S. epidermis biofilm. Kind of experiment: S. epidermis biofilm inhibition, optical density, test/control. As to conditions: for S. epidermis Biofilm inhibition 10 μM vs. (−) Control / activity at 100 µM: growth of biofilm test/control by optical density; for activity at 100 µM: Staphylococcus epidermidis, read-out: S. epidermis Biofilm inhibition 100 μM vs. (−) Control, 100 μM.

The subject of experiment [4] is S. aureus biofilm. Kind of experiment: S. aureus biofilm inhibition, optical density, test/control. Format: cell-based, Staphylococcus aureus. As to conditions: for activity at 100 µM / activity at 10 µM: Staphylococcus aureus.
The subject of experiment [5] is S. aureus virulence factor genes. Kind of experiment: S. aureus virulence factor gene expression, real time RT-PCR. Format: cell-based. The conditions noted are these: RN6390, 50 μM; ML, LL and S growth phase.
In experiment [6] the test system is S. aureus RN6390 strain biofilm. Kind of experiment: microbe, parasite or virus in culture. Format: cell-based. The conditions noted are these: for IC50: Staphylococcus aureus, read-out: IC50, inhibition of RN6390 biofilm formation.
Experiment [7] relates to S. aureus Newman biofilm. Kind of experiment: S. aureus Newman biofilm formation in microtiter plates. Format: cell-based. As for the experimental part: (§1) These compounds were then tested on staphylococcus biofilm formation. […] The two compounds (CCG-203592 and CCG-205363) were tested on S. aurues strain RN6390, which is reported to be more prone to biofilm formation than Newman strain.

Experiment [8] relates to S. aurues strain RN6390. Kind of experiment: S. aureus RN6390 bacterial growth. Format: cell-based. The conditions noted are these: at 20 μM. As for the experimental part: as §1
Experiment [9] relates to P. aeruginosa. Kind of experiment: P. aeruginosa wound infection in DIO mice. Format: in vivo. As to conditions: female DIO mice, 10^8 CFU; vancomycin treatment alone.
Experiment [10] has as its system group A streptococcus (GAS). Kind of experiment: Group A streptococcus infection in mice. Format: in vivo. The conditions noted are these: GAS 105-6 CFU per mouse. As for the experimental part: FIGS. 1A & 1B show the identification of a chemical series of compounds inhibiting group A streptococcus virulence. FIG. 1A) Microarray analysis of gene expression changes in MGAS2221 treated with CCG-102487 compared to DMSO. FIG. 1B) Effect of CCG-2979 on mice survival after infection with GAS (105-6 CFU per mouse).
A number of small molecules that can inhibit SK expression without impeding bacterial growth were evaluated. Furthermore, these compounds can inhibit gene expression of a broad spectrum of streptococcal virulence factors (FIG. 1A).

For experiment [11], the system named is S. aureus RN6390 strain biofilm. Briefly: Biofilm formation on medical grade silicone sheet. Format: cell-based.
Experiment [12] relates to S. aureus Newman strain. Briefly: S. aureus lung infection model in mice. As to conditions: intranasal S. aureus Newman, 3-4×10^8 CFU per mouse.
The mark [13] stands for this setting: 100 μM, growth of biofilm test/control by optical density.
[14] abbreviates: growth of biofilm test/control by optical density.

As to `C=CCn1c(NCC)nc2c(c1=O)C(C)(C)Cc1ccccc1-2` [CCG-203804], the activity at 100 µM was found to be 66.2% in [1], 103% in experiment [2] and 10.3% in experiment [4] (setting [13]). In addition, the “S. epidermis Biofilm inhibition 10 μM vs. (−) Control” value in experiment [3] was found to be 0.858.

In the case of `COCCSc1nc(OCCCO)c2c(n1)-c1ccccc1CC2(C)C` [CCG-205384, 3-((2-((2-Methoxyethyl)thio)-5,5-dimethyl-5,6-dihydrobenzo[h]quinazolin-4-yl)oxy)propan-1-ol], the activity at 100 µM in experiment [1] turned out to be 93.5%; in experiment [2], 100%; in [4] (setting [13]) it was 16%. The “S. epidermis Biofilm inhibition 10 μM vs. (−) Control” value in [3] is 1.095.

For the molecule `C=CCSc1nc2c(c(=O)n1CC=C)C(C)(C)Cc1cc(OC)ccc1-2` [CCG-205363], the “S. aureus virulence factor gene expression” value in experiment [5] is “inhibited gene expression”. Moreover, the activity at 100 µM in experiment [1] stood at 95%. Moreover, the activity at 10 µM in experiment [4] (setting [14]) was 63.1%. The activity at 100 µM in experiment [4] (setting [13]) was 44%. In experiment [6], the “IC50, inhibition of S. aureus biofilm formation” value is listed as “low μM range” and the IC50 came to 6.96 ± 0.76 µM. For the same molecule, the “S. aureus Newman biofilm formation” value in [7] is given as “consistent inhibition”. In experiment [8], the bacteria growth entry is recorded as “without inhibiting bacteria growth”.

As for `C=CCn1c(SCCOC)nc2c(c1=O)C1(CCNCC1)Cc1ccccc1-2` [CCG-205447, 3-Allyl-2-((2-methoxyethyl)thio)-3H-spiro[benzo[h]quinazoline-5,4′-piperidin]-4(6H)-one], the activity at 100 µM stood at 90% in [1] and 104% in experiment [2]. Besides, the “S. epidermis Biofilm inhibition 10 μM vs. (−) Control” value in experiment [3] was 0.936. Further, in experiment [4] (setting [14]), the activity at 10 µM was 110%.

Turning to `C=CCn1c(SCCOC)nc2c(c1=O)C(C)(C)Cc1cc(C(=O)NCCO)ccc1-2` [CCG-206239, 3-allyl-N-(2-hydroxyethyl)-2-((2-methoxyethyl)thio)-5,5-dimethyl-4-oxo-1,2,3,4,5,6-hexahydrobenzo[h]quinazoline-8-carboxamide], the values for the activity at 100 µM in [2] and in [4] (setting [13]) were 111% and 32.7%, respectively.

As to `CN[C@H](CC(C)C)C(=O)N[C@H]1C(=O)N[C@@H](CC(N)=O)C(=O)N[C@H]2C(=O)N[C@H]3C(=O)N[C@H](C(=O)N[C@H](C(=O)O)c4cc(O)cc(O)c4-c4cc3ccc4O)[C@H](O)c3ccc(c(Cl)c3)Oc3cc2cc(c3O[C@@H]2O[C@H](CO)[C@@H](O)[C@H](O)[C@H]2O[C@H]2C[C@](C)(N)[C@H](O)[C@H](C)O2)Oc2ccc(cc2Cl)[C@H]1O` [vancomycin, reference compound], the survival in experiment [9] is given as 40%.

`C=CCn1c(SCCOC)nc2c(c1=O)C1(CCN(C(=O)CCCC)CC1)Cc1ccccc1-2` [CCG-206227, 3-Allyl-2-((2-methoxyethyl)thio)-1′-pentanoyl-3H-spiro[benzo[h]quinazoline-5,4′-piperidin]-4(6H)-one]: the activity at 100 µM in experiment [2] was found to be 141%. Further, in [3], the “biofilm formation by S. epidermis” value is “inhibit biofilm formation” and the “S. epidermis Biofilm inhibition 10 μM vs. (−) Control” value came to 0.943. For the same molecule, the “biofilm formation by S. aureus” value in experiment [4] was “inhibit biofilm formation”. Also, the activity at 10 µM in experiment [4] (setting [14]) is 52.8%. In experiment [4] (setting [13]), the activity at 100 µM came out at 27%.

With `C=CCn1c(SCC)nc2c(c1=O)C(C)(C)Cc1cc(OCCN(CC)CC)ccc1-2` [CCG-205396, 3-Allyl-8-(2-(diethylamino)ethoxy)-2-(ethylthio)-5,5-dimethyl-5,6-dihydrobenzo[h]-quinazolin-4(3H)-one], the activity at 100 µM in experiment [2] is 13%; in experiment [3] it was 3.7%; in [4] (setting [13]) it was 6.2%. In addition, the activity at 10 µM in experiment [4] (setting [14]) is 68.4%.

For the molecule `C=CCn1c(NCC)nc2c(c1=O)C1(CCCCC1)Cc1ccccc1-2` [CCG-203043], the activity at 100 µM in experiment [1] worked out at 70%; in experiment [3], 45%; in [4] (setting [13]) it was 43.5%. Also, in experiment [2] (RP62A strain), the “S. epidermidis bacterial growth” value is recorded as “without inhibition of bacterial growth”. Besides, the “S. epidermis Biofilm inhibition 10 μM vs. (−) Control” value in experiment [3] is 0.169. Also, the “S. epidermidis biofilm formation” value in experiment [3] (RP62A strain, microtiter plate) is recorded as “strong inhibition”.

Take `C=CCn1c(SCc2ccc(OC)cc2)nc2c(c1=O)C1(CCCCC1)Cc1ccccc1-2` [CCG-102483]: the activity at 100 µM in experiment [2] turned out to be 129%; in experiment [3], 78.6%.

Turning to `C=CCn1c(SCC)nc2c(c1=O)C(C)(C)Cc1cc(OCCN3CCOCC3)ccc1-2` [CCG-205427], the activity at 100 µM in [1] came to 92.8%; in experiment [2] it was 98%; in [3], 76.6%. In addition, the activity at 10 µM in experiment [4] (setting [14]) was 73.4%.

With `COCCSc1nc(OCC2OCCO2)c2c(n1)-c1ccccc1CC2(C)C` [CCG-204030, 4-((1,3-dioxolan-2-yl)methoxy)-2-((2-methoxyethyl)thio)-5,5-dimethyl-5,6-dihydrobenzo[h]-quinazoline], in [1], the “Growth Inhibition 100 μM vs. (−) Control” value is 0.919. In addition, the activity at 100 µM stood at 111% in experiment [2] and 73.9% in experiment [3]. In experiment [4] (setting [13]), the “S. aureus Biofilm Inhibition 100 μM vs. (−) Control” value is 0.589.

In the case of `C=CCn1c(SCCCC)nc2c(c1=O)C1(CCCCC1)Cc1ccccc1-2` [CCG-2979], in experiment [10], the “protection of mice against group A streptococcal infection (survival)” value was “capable of protecting mice”.

With `COCCOCCOc1nc(SCCOC)nc2c1C(C)(C)Cc1ccccc1-2` [CCG-204033, 4-(2-(2-Methoxyethoxy)ethoxy)-2-((2-methoxyethyl)thio)-5,5-dimethyl-5,6-dihydrobenzo[h]-quinazoline], the activity at 100 µM in [1] was 83.8%; in experiment [2], 103%; in experiment [3], 75.6%; in experiment [4] (setting [13]), 59.9%.

As for `C=CCn1c(SCC)nc2c(c1=O)C(C)(C)Cc1cc(OC)ccc1-2` [CCG-203592], the “S. aureus virulence factor gene expression” value in [5] is “down regulated; also recorded: inhibited gene expression”. For the same molecule, the activity at 100 µM in experiment [1] stood at 110%. Further, the activity at 10 µM in experiment [4] (setting [14]) is 40.2%. Besides, in experiment [4] (setting [13]), the activity at 100 µM was determined as 23%. In [6], the “IC50, inhibition of S. aureus biofilm formation” value is given as “low μM range” and the IC50 was 2.42 ± 0.14 µM. Moreover, in experiment [7], the “S. aureus Newman biofilm formation” value is recorded as “consistent inhibition”. Also, in experiment [11], the “biofilm formation on the surface of silicone sheet” value is “decreased biofilm formation”. Further, the “protection of mice in S. aureus lung infection model” value in experiment [12] is given as “in vivo efficacy in protecting mice”. Also, the bacteria growth result in [8] is given as “without inhibiting bacteria growth”.

The values are drawn from patent US10441588B2, “Methods and compositions for treating bacterial infection” (Curators of the University of Missouri, priority 2012, dated 2019).
